In patent publication US11596639B2, “Substituted indole Mcl-1 inhibitors” (Vanderbilt University, priority 2016, dated 2023):

Each compound was assayed against Mcl-1 (Homo sapiens (Human), UniProt Q07820) (assay: Fluorescence polarization anisotropy (FPA) competition assay, FITC-Bak or FITC-Bim BH3 peptide). Settings: read-out: Ki for Inhibition of Mcl-1 by FPA assay.
Type: binding

Sequence of Mcl-1 (Q07820 172-327): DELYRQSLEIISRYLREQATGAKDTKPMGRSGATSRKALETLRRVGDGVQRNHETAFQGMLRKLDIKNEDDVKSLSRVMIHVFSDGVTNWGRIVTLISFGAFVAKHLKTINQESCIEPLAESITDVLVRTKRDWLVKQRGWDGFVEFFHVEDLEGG

Compared with `Cc1cc(OCCCc2c3n(c4c(-c5c(C)nn(C)c5C)c(Cl)ccc24)[C@H](C)CN(c2cnc4ccc(C(=O)O)cn24)C3=O)cc(C)c1Cl` [Example 473, (R)-3-(7-chloro-10-(3-(4-chloro-3,5-dimethylphenoxy)propyl)-4-methyl-1-oxo-6-(1,3,5-trimethyl-1H-pyrazol-4-yl)-3,4-dihydropyrazino[1,2-a]indol-2(1H)-yl)imidazo[1,2-a]pyridine-6-carboxylic acid], `Cc1cc(OCCCc2c3n(c4c(-c5c(C)nn(C)c5C)c(Cl)ccc24)[C@H](C)CN(c2ccc(C(=O)O)c(Cl)c2)C3=O)cc(C)c1Cl` [Example 35, (R)-2-chloro-4-(7-chloro-10-(3-(4-chloro-3,5-dimethylphenoxy)propyl)-4-methyl-1-oxo-6-(1,3,5-trimethyl-1H-pyrazol-4-yl)-3,4-dihydropyrazino[1,2-a]indol-2(1H)-yl)benzoic acid] is 2.7-fold lower in Ki: 0.0041 µM for the first, 0.0015 µM for the second. The second binds more tightly here.

Compared with `Cc1ccc(S(=O)(=O)N2CCN(c3cc(C(=O)O)cc(CN4CCCn5c(c(CCCOc6cc(C)c(Cl)c(C)c6)c6ccc(Cl)c(-c7c(C)nn(C)c7C)c65)C4=O)n3)CC2)o1` [Example 27, 2-((8-chloro-11-(3-(4-chloro-3,5-dimethylphenoxy)propyl)-1-oxo-7-(1,3,5-trimethyl-1H-pyrazol-4-yl)-4,5-dihydro-1H-[1,4]diazepino[1,2-a]indol-2(3H)-yl)methyl)-6-(4-((5-methylfuran-2-yl)sulfonyl)piperazin-1-yl)isonicotinic acid], `Cc1cc(OCCCc2c3n(c4c(-c5c(C)nn(C)c5C)c(Cl)ccc24)CCCN(Cc2cc(C(=O)O)cc(N4CCN(C(=O)N(C)C)CC4)n2)C3=O)cc(C)c1Cl` [Example 34, 2-((8-Chloro-11-(3-(4-chloro-3,5-dimethylphenoxy)propyl)-1-oxo-7-(1,3,5-trimethyl-1H-pyrazol-4-yl)-4,5-dihydro-1H-[1,4]diazepino[1,2-a]indol-2(3H)-yl)methyl)-6-(4-(dimethylcarbamoyl)piperazin-1-yl)isonicotinic acid] is 3.2-fold lower in Ki: 0.039 µM for the first, 0.012 µM for the second. The second binds more tightly here.

Compared with `Cc1nn(C)c(C)c1-c1c(Cl)ccc2c(CCCOCC3CC3)c3n(c12)[C@H](C)CN(c1cn(C)c2ccc(C(=O)O)cc12)C3=O` [Example 404, (R)-3-(7-chloro-10-(3-(cyclopropylmethoxy)propyl)-4-methyl-1-oxo-6-(1,3,5-trimethyl-1H-pyrazol-4-yl)-3,4-dihydropyrazino[1,2-a]indol-2(1H)-yl)-1-methyl-1H-indole-5-carboxylic acid], `Cc1cc(OCCCc2c3n(c4c(-c5c(C)nn(C)c5C)c(Cl)ccc24)[C@H](C)CN(c2cn(C)c4ccc(C(F)(F)F)cc24)C3=O)cc(C)c1Cl` (single isomer, unassigned) [Example 193] is 11-fold lower in Ki: 0.044 µM for the first, 0.0039 µM for the second. The second binds more tightly here.

First: Cc1cc(OCCCc2c(C(=O)N3CCC(C(=O)O)C3)[nH]c3c(-c4c(C)ncnc4C)c(Cl)ccc23)cc(C)c1Cl (centres unmarked) [Example 745, 1-[6-Chloro-3-[3-(4-chloro-3,5-dimethyl-phenoxy)propyl]-7-(4,6-dimethylpyrimidin-5-yl)-1H-indole-2-carbonyl]pyrrolidine-3-carboxylic acid]
Second: Cc1cc(OCCCc2c(C(=O)NC3CCC(C(=O)O)CC3)[nH]c3c(-c4c(C)ncnc4C)c(Cl)ccc23)cc(C)c1Cl (single isomer, unassigned) [Example 746, 4-(6-Chloro-3-(3-(4-chloro-3,5-dimethylphenoxy)propyl)-7-(4,6-dimethylpyrimidin-5-yl)-1H-indole-2-carboxamido)cyclohexane-1-carboxylic acid]
The Ki of the first is 8.5-fold higher: 0.044 µM for the first, 0.0052 µM for the second.

First: Cc1cc(OCCCc2c3n(c4c(-c5c(C)nn(C)c5C)c(Cl)ccc24)[C@H](C)[C@@H](C)N(c2cc(C(=O)O)c4ccn(C)c4c2)C3=O)cc(C)c1Cl [Example 143, 6-((3R,4R)-7-chloro-10-(3-(4-chloro-3,5-dimethylphenoxy)propyl)-3,4-dimethyl-1-oxo-6-(1,3,5-trimethyl-1H-pyrazol-4-yl)-3,4-dihydropyrazino[1,2-a]indol-2(1H)-yl)-1-methyl-1H-indole-4-carboxylic acid]
Second: CCn1ncc2c(C(=O)O)cc(N3C[C@@H](C)n4c(c(CCCOc5cc(C)c(Cl)c(C)c5)c5ccc(Cl)c(-c6c(C)nn(C)c6C)c54)C3=O)cc21 [Example 87, (R)-6-(7-chloro-10-(3-(4-chloro-3,5-dimethylphenoxy)propyl)-4-methyl-1-oxo-6-(1,3,5-trimethyl-1H-pyrazol-4-yl)-3,4-dihydropyrazino[1,2-a]indol-2(1H)-yl)-1-ethyl-1H-indazole-4-carboxylic acid]
The Ki of the first is higher: 0.0076 µM for the first, < 0.001 µM for the second. The second binds more tightly here.

Going from `Cc1cc(OCCCc2c3n(c4c(-c5c(C)cccc5C)c(Cl)ccc24)CCCNC3=O)cc(C)c1Cl` [Example 86, 8-Chloro-11-(3-(4-chloro-3,5-dimethylphenoxy)propyl)-7-(2,6-dimethylphenyl)-2,3,4,5-tetrahydro-1H-[1,4]diazepino[1,2-a]indol-1-one] to `Cc1cc(OCCCc2c3n(c4c(-c5c(C)nn(CC(=O)O)c5C)c(Cl)ccc24)CCCN(c2ccccc2)C3=O)cc(C)c1Cl` [Example 136, 2-(4-(8-Chloro-11-(3-(4-chloro-3,5-dimethylphenoxy)propyl)-1-oxo-2-phenyl-2,3,4,5-tetrahydro-1H-[1,4]diazepino[1,2-a]indol-7-yl)-3,5-dimethyl-1H-pyrazol-1-yl)acetic acid], the Ki falls from 0.047 µM to < 0.001 µM.

First: Cc1cc(CCCCc2c(C(=O)N3CCN(c4cc(C(=O)O)ccn4)CC3)n(Cc3cccnc3)c3c(-c4c(C)nn(C)c4C)c(Cl)ccc23)cc(C)c1Cl [Example 741, 2-(4-(6-Chloro-3-(4-(4-chloro-3,5-dimethylphenyl)butyl)-1-(pyridin-3-ylmethyl)-7-(1,3,5-trimethyl-1H-pyrazol-4-yl)-1H-indole-2-carbonyl)piperazin-1-yl)isonicotinic acid]
Second: Cc1cc(CCCCc2c(C(=O)N3CCN(c4ccc(C(=O)O)nc4)CC3)n(Cc3cccnc3)c3c(-c4c(C)nn(C)c4C)c(Cl)ccc23)cc(C)c1Cl [Example 737, 5-(4-(6-Chloro-3-(4-(4-chloro-3,5-dimethylphenyl)butyl)-1-(pyridin-3-ylmethyl)-7-(1,3,5-trimethyl-1H-pyrazol-4-yl)-1H-indole-2-carbonyl)piperazin-1-yl)picolinic acid]
The Ki of the first is higher: > 0.2 µM for the first, 0.14 µM for the second.

`Cc1cc(OCCCc2c(C(=O)N3CCN(c4cccc(C(=O)O)c4)CC3)[nH]c3c(-c4c(C)nn(C)c4C)c(Cl)ccc23)cc(C)c1Cl` [Example 732, 3-(4-(6-chloro-3-(3-(4-chloro-3,5-dimethylphenoxy)propyl)-7-(1,3,5-trimethyl-1H-pyrazol-4-yl)-1H-indole-2-carbonyl)piperazin-1-yl)benzoic acid] and `Cc1cc(CCCCc2c(C(=O)N3CCN(c4ccccc4C(=O)O)CC3)[nH]c3c(-c4c(C)nn(C)c4C)c(Cl)ccc23)cc(C)c1Cl` [Example 744, 2-(4-(6-Chloro-3-(4-(4-chloro-3,5-dimethylphenyl)butyl)-7-(1,3,5-trimethyl-1H-pyrazol-4-yl)-1H-indole-2-carbonyl)piperazin-1-yl)benzoic acid] are within 1.5-fold of each other in Ki: 0.038 µM for the first, 0.03 µM for the second.

Compared with `Cc1cc(OCCCc2c3n(c4c(-c5c(C)nn(C)c5C)c(Cl)ccc24)CCCN(Cc2cc(C(=O)O)cc(N4CCN(C(=O)OC(C)(C)C)CC4)n2)C3=O)cc(C)c1Cl` [Example 8, 2-(4-(Tert-butoxycarbonyl)piperazin-1-yl)-6-((8-chloro-11-(3-(4-chloro-3,5-dimethylphenoxy)propyl)-1-oxo-7-(1,3,5-trimethyl-1H-pyrazol-4-yl)-4,5-dihydro-1H-[1,4]diazepino[1,2-a]indol-2(3H)-yl)methyl)isonicotinic acid], `Cc1cc(OCCCc2c3n(c4c(-c5c(C)nn(C)c5C)c(Cl)ccc24)CCCN(Cc2cc(C(=O)O)cc(N4CCNCC4)n2)C3=O)cc(C)c1Cl` [Example 10, 2-((8-Chloro-11-(3-(4-chloro-3,5-dimethylphenoxy)propyl)-1-oxo-7-(1,3,5-trimethyl-1H-pyrazol-4-yl)-4,5-dihydro-1H-[1,4]diazepino[1,2-a]indol-2(3H)-yl)methyl)-6-(piperazin-1-yl)isonicotinic acid] is 2.1-fold higher in Ki: 0.027 µM for the first, 0.057 µM for the second. The first binds more tightly here.

Compared with `Cc1cc(OCCCc2c3n(c4c(-c5c(C)ncnc5C)c(Cl)ccc24)[C@H](C)CN(c2cccc4cccc(C(=O)O)c24)C3=O)cc(C)c1Cl` [Example 255, 8-[(4R)-7-chloro-10-[3-(4-chloro-3,5-dimethyl-phenoxy)propyl]-6-(4,6-dimethylpyrimidin-5-yl)-4-methyl-1-oxo-3,4-dihydropyrazino[1,2-a]indol-2-yl]naphthalene-1-carboxylic acid], `COc1ccc(N2C[C@@H](C)n3c(c(CCCOc4cc(C)c(Cl)c(C)c4)c4ccc(Cl)c(-c5c(C)nn(C)c5C)c43)C2=O)c2c1c(C)c(C(=O)O)n2C` [Example 351, (R)-7-(7-Chloro-10-(3-(4-chloro-3,5-dimethylphenoxy)propyl)-4-methyl-1-oxo-6-(1,3,5-trimethyl-1H-pyrazol-4-yl)-3,4-dihydropyrazino[1,2-a]indol-2(1H)-yl)-4-methoxy-1,3-dimethyl-1H-indole-2-carboxylic acid] is lower in Ki: 0.0013 µM for the first, < 0.001 µM for the second.

Compared with `Cc1cc(OCCCc2c(C(=O)N3CCN(c4cncc(C(=O)O)c4)CC3)n(Cc3cccnc3)c3c(-c4c(C)nn(C)c4C)c(Cl)ccc23)cc(C)c1Cl` [Example 734, 5-(4-(6-chloro-3-(3-(4-chloro-3,5-dimethylphenoxy)propyl)-1-(pyridin-3-ylmethyl)-7-(1,3,5-trimethyl-1H-pyrazol-4-yl)-1H-indole-2-carbonyl)piperazin-1-yl)nicotinic acid], `Cc1cc(CCCCc2c(C(=O)N3CCN(c4ccccc4C(=O)O)CC3)n(Cc3cccnc3)c3c(-c4c(C)nn(C)c4C)c(Cl)ccc23)cc(C)c1Cl` [Example 739, 2-(4-(6-Chloro-3-(4-(4-chloro-3,5-dimethylphenyl)butyl)-1-(pyridin-3-ylmethyl)-7-(1,3,5-trimethyl-1H-pyrazol-4-yl)-1H-indole-2-carbonyl)piperazin-1-yl)benzoic acid] is lower in Ki: > 0.2 µM for the first, 0.073 µM for the second. The second binds more tightly here.

In the case of `Cc1cc(OCCCc2c3n(c4c(-c5c(C)nn(C)c5C)c(Cl)ccc24)[C@H](C)CN(c2cc(O)cc4c2cc(C(=O)O)n4C)C3=O)cc(C)c1Cl` [Example 303, (P, R)-4-(7-chloro-10-(3-(4-chloro-3,5-dimethylphenoxy)propyl)-4-methyl-1-oxo-6-(1,3,5-trimethyl-1H-pyrazol-4-yl)-3,4-dihydropyrazino[1,2-a]indol-2(1H)-yl)-6-hydroxy-1-methyl-1H-indole-2-carboxylic acid], the Ki is reported as < 0.001 µM.
